Source: a melting point compilation (Tetko et al.; mined from patent text by program, amines drawn as free bases though some values may be those of a salt)

Row | SMILES | melting point [°C]
1 | O=C(Nc1ccc2c(c1)CCOC2)OCc1ccccc1 | 142 to 145
2 | COc1ccc2[nH]c(SCc3nccc(N(C)C)n3)nc2c1 | 182 to 183
3 | O=C(Nc1ccc2ccc(Cl)nc2n1)c1ccccc1Cl | 180
4 | CCCn1cc(-c2c(-c3ccccc3F)nn3ccncc23)ccc1=O | 127 to 128
5 | O=[N+]([O-])c1cc(OCC2CCCSC2)c(Cl)cc1F (centres undefined) | 100 to 103
6 | CNC(=O)Nc1ccc2c(c1)C(=O)NC(=O)C2(C)C | 257 to 258
7 | O=C(CN1C(=O)c2ccccc2C1=O)Nc1ccccc1OC(F)(F)F | 192
8 | COC(=O)c1cc(C)c(OCCNC(=O)C2Cc3ccccc3N2S(=O)(=O)c2ccc(-c3ccc(F)cc3)cc2)c(C)c1 (centres undefined) | 91
9 | CNc1ncc2cc(-c3ccccc3)c(NC)nc2n1 | 204 to 205
10 | COc1cccc(OC)c1N(COCC(C)C)C(=O)CCl | 107 to 110
11 | O=c1c2ccccc2oc2cccn12 | 129 to 130
12 | CCCc1cc(Cl)c2oc(Cc3ccccc3)c(C)c2c1O | 69 to 70
13 | CS(=O)(=O)c1ccc(C(=O)c2cc(-c3ccc(S(C)(=O)=O)cc3)c(N3CCOCC3)s2)cc1 | 190
14 | COc1cc(Nc2nccc(C(=O)Nc3ccccc3)n2)cc(OC)c1OC | 158 to 159
15 | Fc1ccc(CNc2nc(OCc3ccccc3)nc(OCc3ccccc3)n2)cc1 | 157 to 159
16 | Cc1cccc(C)c1NCCCN1C(=O)c2ccccc2C1=O | 97 to 98
17 | C=CCOc1ccc(C[C@H](N)C(=O)NC(=O)OC(C)(C)C)cc1 | 145
18 | COC(=O)c1ncn(C2OC(COC(=O)c3ccccc3)C(OC(=O)c3ccccc3)C2OC(=O)c2ccccc2)n1 (centres undefined) | 137 to 139
19 | CC1(C)C(C(=O)O)C12C=CC=C2 (centres undefined) | 126 to 129
20 | CS(=O)(=O)Nc1cccc(C=C2c3ccc(Cl)cc3CCc3cc(Cl)ccc32)c1 | 182
21 | COCCOCCNc1ncnc2c1cnn2-c1cc(C)cc(C)c1 | 90.4
22 | Cn1cc(CN2CCC[C@H]2CO)c2ccccc21 | 46 to 48
23 | Cc1ccc2cc(-c3ccccc3)ccc2n1 | 95
24 | COc1ccc2oc(-c3ccccc3)c(CC#N)c2c1 | 106 to 107
25 | FC(F)(F)Sc1c(-c2ccc(Cl)cc2)[nH]c(Br)c1Br | 107 to 113
26 | Cc1ccc(C(=O)Nc2ccc(C=O)c(C(F)(F)F)c2)cc1Br | 194 to 195

Row | SMILES | melting point [°C]
27 | CCCCn1c(=O)c2cn(S(=O)(=O)c3cc(Cl)c(Cl)s3)nc2n(CCCC)c1=O | 181 to 182
28 | O=C(O)c1cnc2sccc2c1Cl | 172 to 174
29 | O=C(Nc1cccc(C(F)(F)F)c1)N1COc2cc(O)ccc21 | 173 to 174
30 | CC(C)(C)OC(=O)c1ncn2c1[C@@H]1CCCN1C(=O)c1ccccc1-2 | 237 to 238
31 | CCC(C)NC(=O)n1c(=O)nc(N2CCOCC2)n1C (centres undefined) | 147
32 | O=C(SCCCN1C(=O)NCC1c1ccccc1)c1ccccc1 (centres undefined) | 112 to 115
33 | Cc1ccc(-c2ccc3cc(C(=O)Nc4ccc(CN(C)C5CCOCC5)cc4)[nH]c3c2)cc1 | 246 to 250
34 | C=CCNc1nc(-c2ccccc2)ncc1C(=O)OCC | 49 to 54
35 | CC(C)(C)c1cc(SCCCC(=O)O)cc(C(C)(C)C)c1O | 112 to 114
36 | Cc1cc(Br)cc(-c2ccc3c(c2)C(C)(C)OC(=O)N3)c1 | 231 to 233
37 | CCCc1nc(C)cn1-c1nc(OC)ccc1[N+](=O)[O-] | 96 to 103
38 | COC(=O)C(CCl)NC(=O)c1c(F)cccc1F (centres undefined) | 93.5
39 | CC(=O)OC/C=C(\C)CCc1c(C)c(O)c(C)c(C)c1O | 94.5 to 96
40 | CCOC(=O)c1sc(SC)c2c1CCc1cn(C)nc1-2 | 193 to 194
41 | COc1ccc(C(=O)c2ccccc2Cl)c(Cl)c1Cl | 117 to 120
42 | CCn1ncc(C(=O)c2ccc(S(C)(=O)=O)c(COC)c2C)c1O | 116 to 118
43 | NCC1N=C(c2ccccc2F)c2ccccc2NC1=O (racemic) | 168 to 169
44 | CN(C)c1ccc(S(=O)(=O)N2CCCC2=O)cc1 | 202 to 204
45 | COc1cc(C=CC(=O)c2ccc(I)cc2O)cc(OC)c1OCc1ccccc1 | 124 to 125
46 | COC(=O)c1ccc(C(O)c2cc3cc(C(F)(F)F)ccc3n2S(=O)(=O)c2ccc3c(c2)N(C)CCO3)cc1 (centres undefined) | 80
47 | O=[N+]([O-])c1c(NCC23CCCN2CCC3)ccc2ccccc12 | 86 to 87
48 | Cc1nccn1-c1ccc(OCCO)cc1 | 125 to 127
49 | COC(=O)c1ccc2cccc(OS(=O)(=O)C(F)(F)F)c2n1 | 77 to 78
50 | Cc1ccc2c(c1)C(=O)N(C)Cc1c(C(N)=O)ncn1-2 | 290 to 294
51 | N#Cc1cc(C(=O)CCl)cs1 | 94 to 98
52 | Nc1cc(CO)cc(S(N)(=O)=O)c1Cc1ccccc1 | 159 to 161

Row | SMILES | melting point [°C]
53 | CC(=O)N1CCC(C)(C)C2=C1CCc1cc(Cl)ccc12 | 126 to 127
54 | CN1CCC(Nc2nc3ncnc(O)c3n2Cc2ccc(F)cc2)CC1 | 256
55 | CC/C=C\CCCCCCCCCCOc1ccc(C(C)=O)o1 | 36 to 38
56 | O=c1c2cc(F)c(N3CCCC3)nc2n(-c2cccc(C(F)(F)F)c2)c(=O)n1OCc1ccccc1 | > 250
57 | O=[N+]([O-])c1ccc(C2OCc3ccc(CO)cc3CO2)cc1 (centres undefined) | 146
58 | CN1C(=O)C(C)(C)N=C(c2ccccc2F)c2cc(N3C(=O)NC(C)(C)C3=O)ccc21 | 286 to 287
59 | Cc1oc(-c2ccccc2)nc1COc1ccc(OCc2oc(-c3ccccc3)nc2C=O)cc1 | 127 to 128
60 | COc1cc(C=C(C)[N+](=O)[O-])c(OC)c(C)c1C | 76 to 81
61 | COC(=O)N(CCO)c1ccc(OCc2nc3ccccc3s2)cc1C | 109 to 110
62 | CCCc1cn(-c2cc(=O)n(-c3ccccc3)nc2C#N)nn1 | 192 to 195
63 | Cc1nnc2nc(-c3cccc(C(F)(F)F)c3)cnn12 | 230 to 233
64 | COc1cc(C=O)c(OC)c2c1C(C)(C)CCC2(C)C | 55 to 57
65 | CC(C)NCC(O)COc1cccnc1 (centres undefined) | 84 to 87
66 | O=[N+]([O-])c1ccccc1OCC(O)CO (centres undefined) | 96
67 | O=c1ccc2cc(C(c3ccccc3)n3ccnc3)ccc2[nH]1 (centres undefined) | 227
68 | O=C(O)c1ccc2c(c1)CCc1c(F)cccc1C2=O | 248 to 250
69 | CCCCCCCCCCNC(=O)N(O)CCCC(=O)OCC | 68 to 69
70 | COc1cccc(-n2c(-c3cc(-c4ccccc4)c(N4CCOCC4)s3)nc3ccccc3c2=O)c1 | 269 to 272
71 | COc1ccc(C2=NN(C3CCN(C(=O)N4CCNC4=O)CC3)C(=O)[C@H]3CC=CC[C@@H]23)cc1Cl (relative stereo) | 216 to 218
72 | CCOC(=O)C(C(=O)OCC)c1cccc2ccccc12 | 57 to 59
73 | CC(=O)ONC(=N)c1ccc(-c2ccc(-c3ccc(C(=N)NOC(C)=O)o3)o2)cc1 | 212 to 213
74 | CCOC(=O)c1nc(N)sc1C(=O)CC | 134 to 135
75 | CCn1cc(C(=O)O)c(=O)c2ccc(-c3cccnc3)cc21 | 268 to 269
76 | O=C(C1Nc2cc(F)ccc2-n2cnc(-c3nc(C4CC4)no3)c21)N1CCOCC1 (centres undefined) | 240 to 242
77 | COc1ccc(N(CCCCO)S(=O)(=O)c2c(F)c(F)c(F)c(F)c2F)cc1 | 88 to 90
78 | O=c1c2ccccc2sc2cc(OCC3CO3)cc(O)c12 (centres undefined) | 161

Row | SMILES | melting point [°C]
79 | CC(=O)C12CC(C(C)=O)(C1)C2 | 67 to 69
80 | Cc1nc(N2CCN(C)CC2)nc(N)c1-c1cc(Cl)cc(Cl)c1 | 164 to 166
81 | CCOC(=O)c1c(C(F)(F)F)nc(C(F)(F)Cl)c(C(=O)OC)c1NN1CCCC1 | 101 to 103
82 | CN1CCC(OC(c2cccc(SCCNC(=N)NC#N)c2)c2nc3ccccc3[nH]2)CC1 (centres undefined) | 65
83 | COC(=O)c1c(N(C)C(C)=O)cc(C)cc1N(C)C(C)=O | 163 to 164
84 | c1csc(-c2cnc(COc3ccc(CCCCn4ccnc4)cc3)o2)c1 | 136 to 138
85 | COc1ccc(Nc2ccn(C(C)=O)n2)cc1 | 123 to 124
86 | CC(=O)n1ncc2c(O)cccc21 | 140 to 142
87 | CNC(=O)c1ccccc1Nc1nc(Nc2ccc3c(c2)CNC(=O)CCN3)ncc1Cl | 267 to 268
88 | O=C1Nc2cccc(NC(=O)c3cccn(-c4ccc(F)cc4)c3=O)c2/C1=C/c1ccc[nH]1 | > 300
89 | CN1CC(=O)N(SC(Cl)(Cl)Cl)C1=O | 110 to 112
90 | C[C@H]1C=CC(S(=O)(=O)c2ccccc2)=C[C@H](C)[C@H]1O[Si](C)(C)C(C)(C)C | 81.6 to 83.6
91 | Brc1ccc(-c2cc3c(ccc4ccccc43)o2)cc1 | 154 to 155
92 | CCCCCCCCOc1c(Cl)c(Sc2ccccc2N)c(OCCCCCCCC)c2c1C(=N)NC2=N | 97 to 99
93 | Cc1cccc(C(=O)c2ncccc2C(=O)O)c1 | 184 to 189
94 | CSc1cc2c(cc1C(F)(F)F)N(C(=O)Nc1cccc(C(=O)CCCN(C)C)c1)CC2 | 178 to 180
95 | O=C1Nc2ccc(Cl)cc2C2(c3cccs3)OCCN12 (centres undefined) | 193 to 194
96 | CCc1nn2c(-c3cccnc3)ccnc2c1Cl | 132 to 133
97 | CCOC(=O)c1ccc(OCCCCc2cc(C)no2)cc1 | 61
98 | CCC(=O)N(CC)c1cccc(-c2ccc3nnc(N)n3n2)c1 | 199 to 200
99 | Cc1cnc2c(S(=O)(=O)N[C@@H](CCCc3cn(C(c4ccccc4)(c4ccccc4)c4ccccc4)cn3)C(=O)OC(C)(C)C)cccc2c1 | 56
100 | N#Cc1ccc2[nH]c3ccc(C#N)cc3c2c1 | 360
101 | CC(C)(CO)Cc1cccc(C(O)c2cccc(CC(C)(C)CO)c2)c1 | 98 to 99
102 | O=C(CC(CCCc1ccccc1)C(=O)O)c1ccc2c3c(oc2c1)CCCC3 (centres undefined) | 142 to 144
103 | COc1ccc(C2CCCN2S(=O)(=O)c2ccc(Cl)cc2)cc1 (racemic) | 133
104 | COC(=O)c1cc(OC)c2ccccc2c1OC | 48 to 50
